Results reported in article PMC5490157 (DARU Journal of Pharmaceutical Sciences, 2017).
Several values for one entry are separate records, joined by “and”; a condition that tells them apart may be missing. Identical values can stand only once. Marks after values point to notes of the source that are not given here.

Tests used:
CYP2D6 [1] = assay: Effect of MDMA on CYP2D6-mediated MRZ metabolism (8-OH formation) in isolated perfused rat liver; conditions: MDMA 3 mg/kg IP 1 hour before MRZ perfusion; inferred from 8-OH formation
CYP3A4 = assay: Effect of MDMA on CYP3A4-mediated MRZ metabolism (NDES formation) in isolated perfused rat liver; conditions: MDMA 3 mg/kg IP 1 hour before MRZ perfusion; inferred from NDES formation
CYP2D6 [2] = system: CYP2D6; design: method as in PMID 16714321; conditions: irreversible inhibition of CYP2D6; cited from earlier work
[3] = Isolated perfused rat liver, single-pass perfusion with MRZ-containing Krebs-Henselit buffer, control vs MDMA-pretreated rats; perfusate analysed by HPLC; conditions: for Mean outlet perfusate concentration at four latest samples / Metabolic ratio (metabolite concentration divided by MRZ concentration) at four latest sampling time intervals: mean ± SD; for Decrease in metabolite concentration, treatment vs control: four latest samples; for Decrease in metabolic ratio, treatment vs control: four latest sampling time intervals; for CLh (hepatic clearance) / CLint (intrinsic clearance): ±SD; for AUC(0-t) at 1 μg/ml: rat, isolated perfused rat liver (single-pass)
[4] = MDMA 3 mg/kg IP 1 hour before MRZ
[5] = control group (n = 6), MRZ inlet 1 μg/ml
[6] = control group, individual rats 1-6, metabolite formed from MRZ 1 μg/ml
[7] = treatment group (MDMA 3 mg/kg IP 1 hour before), individual rats 1-6
[8] = treatment group (MDMA 3 mg/kg IP 1 hour before), mean (n = 6)
[9] = treatment group (n = 6), MDMA 3 mg/kg IP 1 hour before MRZ 1 μg/ml
[10] = treatment group (n = 6), MDMA 3 mg/kg IP 1 hour before

Q: Which results are given for `CNC(C)Cc1ccc2c(c1)OCO2` (stereo not drawn) [MDMA, 3,4-methylenedioxymethamphetamine]?
A: Effect on CYP2D6 hepatic isoenzyme (CYP2D6 [1]): inhibitory effects; Effect on CYP3A4 hepatic isoenzyme (CYP3A4): inhibitory effects; Time after MDMA administration at which mechanism-based inhibition of most CYP2D6 isoenzymes is demonstrated (CYP2D6 [2]): ≤ 1 h

Q: For `CN1CCN2c3ncc(O)cc3Cc3ccccc3C2C1` (stereo not drawn) [8-OH, 8-hydroxymirtazapine], which “Decrease in AUC (0–120) of metabolite, treatment vs control” value [3, 4] is on record?
A: 70%

Q: And the “Mean outlet perfusate concentration at four latest samples” value (“Mean outlet perfusate concentration” below) [3, 5]?
A: 10.3 ± 3.2 ng/mL

Q: And the “Metabolic ratio (metabolite concentration divided by MRZ concentration) at four latest sampling time intervals” value ([3]; control group (n = 6))?
A: 0.1 ± 0.05

Q: And the “AUC (0–120) 8-OH Control” value [3, 6]?
A: 2124.9 ng·min/mL and 1398.9 ng·min/mL and 1960.2 ng·min/mL and 1674.1 ng·min/mL and 610.9 ng·min/mL and 588.2 ng·min/mL

Q: What about the “AUC (0–120) 8-OH Control, MEAN” value ([3]; control group, mean (n = 6)) of the same compound?
A: 1392.9 ng·min/mL

Q: What about the “Decrease in metabolite concentration, treatment vs control” value [3, 4] of the same compound?
A: 50%

Q: And the “Decrease in metabolic ratio, treatment vs control” value [3, 4]?
A: 83%

Q: And the “AUC (0–120) 8-OH Treatment” value [3, 7]?
A: 287.5 ng·min/mL and 398.6 ng·min/mL and 449.2 ng·min/mL and 415.4 ng·min/mL and 371.3 ng·min/mL and 920.5 ng·min/mL

Q: What about the “AUC (0–120) 8-OH Treatment, MEAN” value [3, 8] of the same compound?
A: 473.7* ng.min/ml

Q: What about the “Mean outlet perfusate concentration” value [3, 9] of the same compound?
A: 4.7 ± 2.9 ng/mL

Q: And the “Metabolic ratio (metabolite concentration divided by MRZ concentration) at four latest sampling time intervals” value [3, 10]?
A: 0.02 ± 0.008

Q: Which results are given for `CN1CCN2c3ncccc3Cc3ccccc3C2C1` (stereo not drawn) [MRZ, Mirtazapine, reference compound]?
A: Decrease in CLint, treatment vs control [3, 4]: 60%; Increase in AUC (0–120) of parent drug, treatment vs control [3, 4]: 50%; Mean outlet perfusate concentration at four latest samples [3, 5]: 131.9 ± 56.9 ng/mL; CLh (hepatic clearance) ([3]; control group (n = 6), CLh=Q×E, Q 8.3 ml/min): 7.2 ± 0.5 mL/min and 7.21 ± 0.47 mL/min; CLint (intrinsic clearance) ([3]; control group (n = 6), CLint=E×Q/F): 63.4 ± 25.8 mL/min and 63.4 ± 25.81 mL/min; AUC (0–120) MRZ Control ([3]; control group, individual rats 1-6): 9928.7 ng.min/ml and 16,443.6 ng.min/ml and 10,611.4 ng.min/ml and 13,295.1 ng.min/ml and 19,497.1 ng.min/ml; AUC(0-t) at 1 μg/ml ([3]; AUC (0–120) MRZ Control, MEAN, control group, mean (n = 6)): 237 ng·h/mL; AUC(0-t) at 1 μg/ml ([3]; AUC (0–120) MRZ Control, control group, individual rats 1-6): 259 ng·h/mL; AUC(0-t) at 1 μg/ml ([3]; ip, 3 mg/kg, AUC (0–120) MRZ Treatment, MEAN, treatment group (MDMA 3 mg/kg IP 1 hour before), mean (n = 6)): 358 ng·h/mL; AUC(0-t) at 1 μg/ml ([3]; ip, 3 mg/kg, AUC (0–120) MRZ Treatment, treatment group (MDMA 3 mg/kg IP 1 hour before), individual rats 1-6): 401 ng·h/mL; AUC (0–120) MRZ Treatment [3, 7]: 18,031.1 ng.min/ml and 17,675.6 ng.min/ml and 23,553.7 ng.min/ml and 23,063.4 ng.min/ml and 22,680.5 ng.min/ml; Mean outlet perfusate concentration at four latest samples [3, 9]: 236.8 ± 44.7 ng/mL; CLh (hepatic clearance) [3, 10]: 6.3 ± 0.4 mL/min and 6.33 ± 0.37 mL/min; CLint (intrinsic clearance) [3, 10]: 27.7 ± 6.3 mL/min and 27.71 ± 6.26 mL/min

Q: For `c1ccc2c(c1)Cc1cccnc1N1CCNCC21` (stereo not drawn) [NDES, N-desmethylmirtazapine], which “Decrease in AUC (0–120) of metabolite, treatment vs control” value [3, 4] is on record?
A: 60%

Q: What about the “Mean outlet perfusate concentration” value [3, 5] of the same compound?
A: 188.6 ± 63.44 ng/mL

Q: What about the “Metabolic ratio (metabolite concentration divided by MRZ concentration) at four latest sampling time intervals” value ([3]; control group (n = 6)) of the same compound?
A: 1.7 ± 0.8

Q: What about the “AUC (0–120) NDES Control” value [3, 6] of the same compound?
A: 28,525.2 ng.min/ml and 22,505.4 ng.min/ml and 15,171.6 ng.min/ml and 18,839.8 ng.min/ml and 11,195.2 ng.min/ml and 12,075.7 ng.min/ml

Q: And the “AUC (0–120) NDES Control, MEAN” value ([3]; control group, mean (n = 6))?
A: 18,052.1 ng.min/ml

Q: And the “Decrease in metabolite concentration, treatment vs control” value [3, 4]?
A: 50%

Q: And the “Decrease in metabolic ratio, treatment vs control” value [3, 4]?
A: 79%

Q: What about the “AUC (0–120) NDES Treatment” value [3, 7] of the same compound?
A: 593.7 ng.min/ml and 12,111.8 ng.min/ml and 15,346.2 ng.min/ml and 5860.1 ng.min/ml and 10,613.3 ng.min/ml and 3605.2 ng.min/ml

Q: And the “AUC (0–120) NDES Treatment, MEAN” value [3, 8]?
A: 8021.7* ng.min/ml

Q: And the “Mean outlet perfusate concentration” value [3, 9]?
A: 98.5 ± 64.3 ng/mL

Q: What about the “Metabolic ratio (metabolite concentration divided by MRZ concentration) at four latest sampling time intervals” value [3, 10] of the same compound?
A: 0.45 ± 0.3
